# Biological target: Cyclin-dependent kinase 1/cyclin B1 (Homo sapiens) (UniProt P06493+P14635)
# Experiment: Inhibition of human CDK1/cyclin B assessed as residual activity at 1 uM relative to control
# Format: protein-complex assay
# Cyclin-dependent kinase 1/cyclin B1 (Homo sapiens), sequence (P06493 whole entry, looked up): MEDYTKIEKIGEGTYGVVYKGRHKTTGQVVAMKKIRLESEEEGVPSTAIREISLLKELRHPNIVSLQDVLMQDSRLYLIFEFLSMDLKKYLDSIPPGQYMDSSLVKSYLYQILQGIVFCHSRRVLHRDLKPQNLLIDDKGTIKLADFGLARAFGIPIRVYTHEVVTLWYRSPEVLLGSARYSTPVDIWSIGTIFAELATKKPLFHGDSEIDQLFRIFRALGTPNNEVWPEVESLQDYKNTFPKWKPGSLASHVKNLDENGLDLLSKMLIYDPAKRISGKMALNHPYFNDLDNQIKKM
# Cyclin-dependent kinase 1/cyclin B1 (Homo sapiens), sequence (P14635 whole entry, looked up): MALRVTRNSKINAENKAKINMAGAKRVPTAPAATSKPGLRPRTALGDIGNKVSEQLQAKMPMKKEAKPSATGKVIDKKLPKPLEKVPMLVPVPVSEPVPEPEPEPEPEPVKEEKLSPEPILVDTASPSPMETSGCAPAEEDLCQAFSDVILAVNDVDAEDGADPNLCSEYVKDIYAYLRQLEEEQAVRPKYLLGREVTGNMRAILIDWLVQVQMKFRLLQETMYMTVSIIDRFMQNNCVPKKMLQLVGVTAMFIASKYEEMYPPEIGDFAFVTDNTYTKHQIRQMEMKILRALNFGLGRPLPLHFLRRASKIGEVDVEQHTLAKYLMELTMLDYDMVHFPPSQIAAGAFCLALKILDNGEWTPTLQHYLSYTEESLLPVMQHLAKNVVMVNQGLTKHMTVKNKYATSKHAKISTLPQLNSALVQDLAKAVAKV
row,SMILES,Activity [%]
1,COc1ccc(-c2nc3cc(-c4csc(C(=O)NCCC(C)C)c4)cnc3[nH]2)cc1,68
2,COc1ccc(-c2nc3cc(-c4csc(C(=O)NCC(C)(C)C)c4)cnc3[nH]2)cc1,89
3,COc1ccc(-c2nc3cc(-c4csc(C(=O)NCC(C)C)c4)cnc3[nH]2)cc1,68

# Biological target: Tyrosine-protein kinase ABL2 (Homo sapiens) (UniProt P42684)
# Experiment: Inhibition of human ARG assessed as residual activity at 1 uM relative to control
row,SMILES,Activity [%]
1,COc1ccc(-c2nc3cc(-c4csc(C(=O)NCCC(C)C)c4)cnc3[nH]2)cc1,52
2,COc1ccc(-c2nc3cc(-c4csc(C(=O)NCC(C)(C)C)c4)cnc3[nH]2)cc1,60
3,COc1ccc(-c2nc3cc(-c4csc(C(=O)NCC(C)C)c4)cnc3[nH]2)cc1,38

# Biological target: MAP kinase-activated protein kinase 2 (Homo sapiens) (UniProt P49137)
# Sequence (P49137 whole entry, looked up): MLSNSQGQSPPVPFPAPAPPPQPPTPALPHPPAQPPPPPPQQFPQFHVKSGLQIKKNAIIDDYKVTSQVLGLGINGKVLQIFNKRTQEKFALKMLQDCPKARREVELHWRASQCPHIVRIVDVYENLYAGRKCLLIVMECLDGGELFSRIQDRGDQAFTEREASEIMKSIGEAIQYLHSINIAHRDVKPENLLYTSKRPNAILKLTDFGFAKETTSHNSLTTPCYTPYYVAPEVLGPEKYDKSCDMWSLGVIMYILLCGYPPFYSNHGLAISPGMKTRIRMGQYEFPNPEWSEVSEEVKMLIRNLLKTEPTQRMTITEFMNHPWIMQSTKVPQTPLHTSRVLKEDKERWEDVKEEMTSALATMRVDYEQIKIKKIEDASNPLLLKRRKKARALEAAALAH
# Experiment: Inhibition of human MAPKAP-K2 assessed as residual activity at 1 uM relative to control
row,SMILES,Activity [%]
1,COc1ccc(-c2nc3cc(-c4csc(C(=O)NCCC(C)C)c4)cnc3[nH]2)cc1,94
2,COc1ccc(-c2nc3cc(-c4csc(C(=O)NCC(C)(C)C)c4)cnc3[nH]2)cc1,98
3,COc1ccc(-c2nc3cc(-c4csc(C(=O)NCC(C)C)c4)cnc3[nH]2)cc1,101

# Biological target: Ribosomal protein S6 kinase beta-1 (Homo sapiens) (UniProt P23443)
# Sequence (P23443 whole entry, looked up): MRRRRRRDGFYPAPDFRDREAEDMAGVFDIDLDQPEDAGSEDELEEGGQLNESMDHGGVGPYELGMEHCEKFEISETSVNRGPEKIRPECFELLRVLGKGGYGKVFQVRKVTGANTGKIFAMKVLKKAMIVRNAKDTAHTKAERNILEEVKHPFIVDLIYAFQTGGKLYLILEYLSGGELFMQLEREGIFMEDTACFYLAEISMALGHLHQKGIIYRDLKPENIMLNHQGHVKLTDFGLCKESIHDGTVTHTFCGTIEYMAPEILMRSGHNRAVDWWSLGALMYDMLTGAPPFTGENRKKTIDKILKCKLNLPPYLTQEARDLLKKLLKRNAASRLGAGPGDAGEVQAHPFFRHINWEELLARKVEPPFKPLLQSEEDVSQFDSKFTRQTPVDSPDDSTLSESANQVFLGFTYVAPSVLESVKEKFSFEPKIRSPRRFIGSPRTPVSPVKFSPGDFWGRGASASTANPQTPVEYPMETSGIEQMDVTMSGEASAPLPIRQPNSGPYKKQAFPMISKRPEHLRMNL
# Experiment: Inhibition of human p70S6K assessed as residual activity at 1 uM relative to control
row,SMILES,Activity [%]
1,COc1ccc(-c2nc3cc(-c4csc(C(=O)NCCC(C)C)c4)cnc3[nH]2)cc1,80
2,COc1ccc(-c2nc3cc(-c4csc(C(=O)NCC(C)(C)C)c4)cnc3[nH]2)cc1,87
3,COc1ccc(-c2nc3cc(-c4csc(C(=O)NCC(C)C)c4)cnc3[nH]2)cc1,84

# Biological target: Aurora kinase B (Homo sapiens, UniProt Q96GD4)
# Experiment: Inhibition of aurora B (unknown origin)
row,SMILES,IC50 [µM]
1,COc1ccc(-c2nc3cc(-c4csc(C(=O)NCCC(C)C)c4)cnc3[nH]2)cc1,18.8
2,COc1ccc(-c2nc3cc(-c4csc(C(=O)NCC(C)(C)C)c4)cnc3[nH]2)cc1,1.44
3,COc1ccc(-c2nc3cc(-c4csc(C(=O)NCC(C)C)c4)cnc3[nH]2)cc1,5.92

# Biological target: Tyrosine-protein kinase Lck (Homo sapiens) (UniProt P06239)
# Sequence (P06239 2-509 limits assumed): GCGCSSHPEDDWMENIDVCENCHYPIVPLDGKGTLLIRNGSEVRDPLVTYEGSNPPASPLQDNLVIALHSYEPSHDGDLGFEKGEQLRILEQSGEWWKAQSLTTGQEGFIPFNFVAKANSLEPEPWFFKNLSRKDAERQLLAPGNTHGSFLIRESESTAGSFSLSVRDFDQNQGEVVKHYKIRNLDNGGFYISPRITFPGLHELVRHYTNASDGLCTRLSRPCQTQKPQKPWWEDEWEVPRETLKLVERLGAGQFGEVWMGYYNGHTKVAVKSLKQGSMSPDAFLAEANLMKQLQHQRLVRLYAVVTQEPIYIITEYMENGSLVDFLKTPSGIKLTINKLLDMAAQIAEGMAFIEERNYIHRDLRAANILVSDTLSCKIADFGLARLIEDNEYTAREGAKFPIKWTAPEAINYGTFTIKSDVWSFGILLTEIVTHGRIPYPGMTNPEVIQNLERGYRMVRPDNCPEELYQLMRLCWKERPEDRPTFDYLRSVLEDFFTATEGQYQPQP
# Experiment: Inhibition of human activated LCK assessed as residual activity at 1 uM relative to control
row,SMILES,Activity [%]
1,COc1ccc(-c2nc3cc(-c4csc(C(=O)NCCC(C)C)c4)cnc3[nH]2)cc1,47
2,COc1ccc(-c2nc3cc(-c4csc(C(=O)NCC(C)(C)C)c4)cnc3[nH]2)cc1,71
3,COc1ccc(-c2nc3cc(-c4csc(C(=O)NCC(C)C)c4)cnc3[nH]2)cc1,56

# Biological target: T1, Serine/threonine-protein kinase 17A (Homo sapiens) (UniProt Q9UEE5)
# T1 sequence (whole entry): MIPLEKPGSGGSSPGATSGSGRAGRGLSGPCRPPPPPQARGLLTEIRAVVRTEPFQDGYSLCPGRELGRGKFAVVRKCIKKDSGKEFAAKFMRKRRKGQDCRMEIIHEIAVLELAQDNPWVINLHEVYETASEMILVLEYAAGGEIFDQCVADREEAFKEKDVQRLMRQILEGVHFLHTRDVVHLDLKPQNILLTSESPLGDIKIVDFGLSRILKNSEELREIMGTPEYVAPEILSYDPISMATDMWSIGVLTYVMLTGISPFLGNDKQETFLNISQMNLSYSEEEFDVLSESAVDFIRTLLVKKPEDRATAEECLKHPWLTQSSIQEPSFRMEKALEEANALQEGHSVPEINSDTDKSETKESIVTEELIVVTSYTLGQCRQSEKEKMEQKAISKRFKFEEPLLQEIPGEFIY
# Experiment: Inhibition of human DRAK1 assessed as residual activity at 1 uM relative to control
row,SMILES,Activity [%]
1,COc1ccc(-c2nc3cc(-c4csc(C(=O)NCCC(C)C)c4)cnc3[nH]2)cc1,7
2,COc1ccc(-c2nc3cc(-c4csc(C(=O)NCC(C)(C)C)c4)cnc3[nH]2)cc1,8
3,COc1ccc(-c2nc3cc(-c4csc(C(=O)NCC(C)C)c4)cnc3[nH]2)cc1,4

# Species on record: Homo sapiens
# Experiment: Inhibition of human PKA assessed as residual activity at 1 uM relative to control
row,SMILES,Activity [%]
1,COc1ccc(-c2nc3cc(-c4csc(C(=O)NCCC(C)C)c4)cnc3[nH]2)cc1,97
2,COc1ccc(-c2nc3cc(-c4csc(C(=O)NCC(C)(C)C)c4)cnc3[nH]2)cc1,82
3,COc1ccc(-c2nc3cc(-c4csc(C(=O)NCC(C)C)c4)cnc3[nH]2)cc1,89

# Biological target: CDK6/cyclin D3 (Homo sapiens) (UniProt P30281+Q00534)
# Experiment: Inhibition of human CDK6/cyclin D3 assessed as residual activity at 1 uM relative to control
# Format: protein-complex assay
row,SMILES,Activity [%]
1,COc1ccc(-c2nc3cc(-c4csc(C(=O)NCCC(C)C)c4)cnc3[nH]2)cc1,102
2,COc1ccc(-c2nc3cc(-c4csc(C(=O)NCC(C)(C)C)c4)cnc3[nH]2)cc1,105
3,COc1ccc(-c2nc3cc(-c4csc(C(=O)NCC(C)C)c4)cnc3[nH]2)cc1,103

# Biological target: CDK7/Cyclin H/MNAT1 (Homo sapiens) (UniProt P51946+P50613+P51948)
# Experiment: Inhibition of human CDK7/cyclin H/MAT1 assessed as residual activity at 1 uM relative to control
# Format: protein-complex assay
row,SMILES,Activity [%]
1,COc1ccc(-c2nc3cc(-c4csc(C(=O)NCCC(C)C)c4)cnc3[nH]2)cc1,95
2,COc1ccc(-c2nc3cc(-c4csc(C(=O)NCC(C)(C)C)c4)cnc3[nH]2)cc1,100
3,COc1ccc(-c2nc3cc(-c4csc(C(=O)NCC(C)C)c4)cnc3[nH]2)cc1,91

# Biological target: Fibroblast growth factor receptor 1 (Homo sapiens) (UniProt P11362)
# Experiment: Inhibition of human FGFR1 assessed as residual activity at 1 uM relative to control
row,SMILES,Activity [%]
1,COc1ccc(-c2nc3cc(-c4csc(C(=O)NCCC(C)C)c4)cnc3[nH]2)cc1,91
2,COc1ccc(-c2nc3cc(-c4csc(C(=O)NCC(C)(C)C)c4)cnc3[nH]2)cc1,94
3,COc1ccc(-c2nc3cc(-c4csc(C(=O)NCC(C)C)c4)cnc3[nH]2)cc1,70

# Biological target: SRSF protein kinase 1 (Homo sapiens) (UniProt Q96SB4)
# Experiment: Inhibition of human SRPK1 assessed as residual activity at 1 uM relative to control
row,SMILES,Activity [%]
1,COc1ccc(-c2nc3cc(-c4csc(C(=O)NCCC(C)C)c4)cnc3[nH]2)cc1,96
2,COc1ccc(-c2nc3cc(-c4csc(C(=O)NCC(C)(C)C)c4)cnc3[nH]2)cc1,94
3,COc1ccc(-c2nc3cc(-c4csc(C(=O)NCC(C)C)c4)cnc3[nH]2)cc1,91

# Biological target: Serine/threonine-protein kinase PAK 1 (Homo sapiens) (UniProt Q13153)
# Sequence (Q13153 whole entry): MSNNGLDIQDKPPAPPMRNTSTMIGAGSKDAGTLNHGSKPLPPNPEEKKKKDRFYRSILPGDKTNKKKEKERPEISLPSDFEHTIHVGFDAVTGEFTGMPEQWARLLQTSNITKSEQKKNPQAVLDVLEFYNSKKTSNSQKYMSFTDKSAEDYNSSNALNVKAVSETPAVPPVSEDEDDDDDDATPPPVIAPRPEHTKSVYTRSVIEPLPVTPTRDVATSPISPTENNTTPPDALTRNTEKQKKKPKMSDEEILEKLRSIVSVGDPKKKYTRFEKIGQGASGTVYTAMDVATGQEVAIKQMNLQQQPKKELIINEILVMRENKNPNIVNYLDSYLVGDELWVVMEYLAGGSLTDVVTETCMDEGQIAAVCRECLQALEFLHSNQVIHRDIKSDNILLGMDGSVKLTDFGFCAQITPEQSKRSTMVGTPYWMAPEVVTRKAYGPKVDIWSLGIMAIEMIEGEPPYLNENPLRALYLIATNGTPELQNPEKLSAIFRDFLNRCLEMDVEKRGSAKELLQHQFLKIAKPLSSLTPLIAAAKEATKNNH
# Experiment: Inhibition of human PAK1 assessed as residual activity at 1 uM relative to control
row,SMILES,Activity [%]
1,COc1ccc(-c2nc3cc(-c4csc(C(=O)NCCC(C)C)c4)cnc3[nH]2)cc1,96
2,COc1ccc(-c2nc3cc(-c4csc(C(=O)NCC(C)(C)C)c4)cnc3[nH]2)cc1,94
3,COc1ccc(-c2nc3cc(-c4csc(C(=O)NCC(C)C)c4)cnc3[nH]2)cc1,105

# Biological target: Tyrosine-protein kinase Blk (Homo sapiens) (UniProt P51451)
# Experiment: Inhibition of human BLK assessed as residual activity at 1 uM relative to control
row,SMILES,Activity [%]
1,COc1ccc(-c2nc3cc(-c4csc(C(=O)NCCC(C)C)c4)cnc3[nH]2)cc1,13
2,COc1ccc(-c2nc3cc(-c4csc(C(=O)NCC(C)(C)C)c4)cnc3[nH]2)cc1,48
3,COc1ccc(-c2nc3cc(-c4csc(C(=O)NCC(C)C)c4)cnc3[nH]2)cc1,25

# Biological target: T2, Serine/threonine-protein kinase Nek2 (Homo sapiens) (UniProt P51955)
# T2 sequence (whole entry): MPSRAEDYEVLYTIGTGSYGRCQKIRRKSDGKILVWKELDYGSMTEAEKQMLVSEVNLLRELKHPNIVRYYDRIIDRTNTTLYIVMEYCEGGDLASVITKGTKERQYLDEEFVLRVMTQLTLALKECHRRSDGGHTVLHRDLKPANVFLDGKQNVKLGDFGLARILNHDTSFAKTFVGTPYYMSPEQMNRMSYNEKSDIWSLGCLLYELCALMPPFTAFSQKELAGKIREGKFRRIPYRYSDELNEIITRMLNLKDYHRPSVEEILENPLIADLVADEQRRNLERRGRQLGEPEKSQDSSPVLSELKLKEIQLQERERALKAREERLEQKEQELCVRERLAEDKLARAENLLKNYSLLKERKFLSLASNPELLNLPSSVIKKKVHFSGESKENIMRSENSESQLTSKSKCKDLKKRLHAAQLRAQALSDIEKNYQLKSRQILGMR
# Experiment: Inhibition of human NEK2 assessed as residual activity at 1 uM relative to control
row,SMILES,Activity [%]
1,COc1ccc(-c2nc3cc(-c4csc(C(=O)NCCC(C)C)c4)cnc3[nH]2)cc1,97
2,COc1ccc(-c2nc3cc(-c4csc(C(=O)NCC(C)(C)C)c4)cnc3[nH]2)cc1,111
3,COc1ccc(-c2nc3cc(-c4csc(C(=O)NCC(C)C)c4)cnc3[nH]2)cc1,120

# Biological target: T3, Protein kinase C epsilon type (Homo sapiens) (UniProt Q02156)
# T3 sequence (whole entry): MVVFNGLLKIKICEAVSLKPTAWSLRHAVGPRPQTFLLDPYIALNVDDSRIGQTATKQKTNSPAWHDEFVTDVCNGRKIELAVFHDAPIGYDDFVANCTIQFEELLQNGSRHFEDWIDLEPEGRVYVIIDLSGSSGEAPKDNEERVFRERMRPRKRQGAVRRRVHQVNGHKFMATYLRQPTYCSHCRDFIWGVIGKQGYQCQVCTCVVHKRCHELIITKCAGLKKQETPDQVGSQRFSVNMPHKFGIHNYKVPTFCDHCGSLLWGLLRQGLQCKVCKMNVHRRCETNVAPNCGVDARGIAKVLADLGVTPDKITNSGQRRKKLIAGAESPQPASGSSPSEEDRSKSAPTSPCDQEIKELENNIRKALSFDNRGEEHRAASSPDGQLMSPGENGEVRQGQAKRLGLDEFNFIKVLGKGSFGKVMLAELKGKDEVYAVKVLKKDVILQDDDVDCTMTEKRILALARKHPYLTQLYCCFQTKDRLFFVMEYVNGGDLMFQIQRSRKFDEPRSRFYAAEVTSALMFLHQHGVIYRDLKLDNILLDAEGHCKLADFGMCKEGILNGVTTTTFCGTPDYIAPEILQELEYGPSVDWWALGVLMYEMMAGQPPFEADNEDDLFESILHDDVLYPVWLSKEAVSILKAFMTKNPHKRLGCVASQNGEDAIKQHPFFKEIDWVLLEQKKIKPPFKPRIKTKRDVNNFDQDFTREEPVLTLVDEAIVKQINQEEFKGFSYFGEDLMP
# Experiment: Inhibition of human PKC-epsilon assessed as residual activity at 1 uM relative to control
row,SMILES,Activity [%]
1,COc1ccc(-c2nc3cc(-c4csc(C(=O)NCCC(C)C)c4)cnc3[nH]2)cc1,85
2,COc1ccc(-c2nc3cc(-c4csc(C(=O)NCC(C)(C)C)c4)cnc3[nH]2)cc1,90
3,COc1ccc(-c2nc3cc(-c4csc(C(=O)NCC(C)C)c4)cnc3[nH]2)cc1,96

# Biological target: Glycogen synthase kinase-3 beta (Homo sapiens) (UniProt P49841)
# Experiment: Inhibition of human GSK3beta assessed as residual activity at 1 uM relative to control
row,SMILES,Activity [%]
1,COc1ccc(-c2nc3cc(-c4csc(C(=O)NCCC(C)C)c4)cnc3[nH]2)cc1,83
2,COc1ccc(-c2nc3cc(-c4csc(C(=O)NCC(C)(C)C)c4)cnc3[nH]2)cc1,106
3,COc1ccc(-c2nc3cc(-c4csc(C(=O)NCC(C)C)c4)cnc3[nH]2)cc1,102

# Biological target: Ephrin type-A receptor 5 (Homo sapiens) (UniProt P54756)
# Sequence (P54756 whole entry): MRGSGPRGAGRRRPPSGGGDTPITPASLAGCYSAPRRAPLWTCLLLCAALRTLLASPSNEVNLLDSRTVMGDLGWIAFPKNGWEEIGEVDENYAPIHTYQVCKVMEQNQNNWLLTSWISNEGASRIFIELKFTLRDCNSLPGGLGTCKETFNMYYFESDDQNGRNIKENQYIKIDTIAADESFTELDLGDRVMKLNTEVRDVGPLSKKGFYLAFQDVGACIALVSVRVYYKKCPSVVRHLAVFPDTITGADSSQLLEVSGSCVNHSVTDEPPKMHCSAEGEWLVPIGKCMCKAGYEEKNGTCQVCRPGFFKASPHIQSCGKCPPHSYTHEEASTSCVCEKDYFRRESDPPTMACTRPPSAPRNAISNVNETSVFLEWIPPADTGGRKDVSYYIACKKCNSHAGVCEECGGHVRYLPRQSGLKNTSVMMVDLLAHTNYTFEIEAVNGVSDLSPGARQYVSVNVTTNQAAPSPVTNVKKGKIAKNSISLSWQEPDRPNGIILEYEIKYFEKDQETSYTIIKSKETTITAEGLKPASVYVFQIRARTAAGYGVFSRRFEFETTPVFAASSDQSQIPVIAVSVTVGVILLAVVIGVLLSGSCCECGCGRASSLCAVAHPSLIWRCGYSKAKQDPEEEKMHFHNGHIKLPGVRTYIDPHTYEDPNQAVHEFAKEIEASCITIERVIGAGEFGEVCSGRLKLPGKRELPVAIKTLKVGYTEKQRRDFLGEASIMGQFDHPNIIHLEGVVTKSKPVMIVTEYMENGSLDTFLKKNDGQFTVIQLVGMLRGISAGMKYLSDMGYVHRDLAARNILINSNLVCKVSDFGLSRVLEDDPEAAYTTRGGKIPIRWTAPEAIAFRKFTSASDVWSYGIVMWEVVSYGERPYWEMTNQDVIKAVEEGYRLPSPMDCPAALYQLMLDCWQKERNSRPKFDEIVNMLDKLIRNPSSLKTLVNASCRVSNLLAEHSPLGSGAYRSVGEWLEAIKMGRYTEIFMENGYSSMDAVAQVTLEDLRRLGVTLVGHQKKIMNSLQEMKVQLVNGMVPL
# Experiment: Inhibition of human EPHA5 assessed as residual activity at 1 uM relative to control
row,SMILES,Activity [%]
1,COc1ccc(-c2nc3cc(-c4csc(C(=O)NCCC(C)C)c4)cnc3[nH]2)cc1,76
2,COc1ccc(-c2nc3cc(-c4csc(C(=O)NCC(C)(C)C)c4)cnc3[nH]2)cc1,77
3,COc1ccc(-c2nc3cc(-c4csc(C(=O)NCC(C)C)c4)cnc3[nH]2)cc1,72

# Biological target: Proto-oncogene tyrosine-protein kinase receptor Ret (Homo sapiens) (UniProt P07949)
# Sequence (P07949 whole entry): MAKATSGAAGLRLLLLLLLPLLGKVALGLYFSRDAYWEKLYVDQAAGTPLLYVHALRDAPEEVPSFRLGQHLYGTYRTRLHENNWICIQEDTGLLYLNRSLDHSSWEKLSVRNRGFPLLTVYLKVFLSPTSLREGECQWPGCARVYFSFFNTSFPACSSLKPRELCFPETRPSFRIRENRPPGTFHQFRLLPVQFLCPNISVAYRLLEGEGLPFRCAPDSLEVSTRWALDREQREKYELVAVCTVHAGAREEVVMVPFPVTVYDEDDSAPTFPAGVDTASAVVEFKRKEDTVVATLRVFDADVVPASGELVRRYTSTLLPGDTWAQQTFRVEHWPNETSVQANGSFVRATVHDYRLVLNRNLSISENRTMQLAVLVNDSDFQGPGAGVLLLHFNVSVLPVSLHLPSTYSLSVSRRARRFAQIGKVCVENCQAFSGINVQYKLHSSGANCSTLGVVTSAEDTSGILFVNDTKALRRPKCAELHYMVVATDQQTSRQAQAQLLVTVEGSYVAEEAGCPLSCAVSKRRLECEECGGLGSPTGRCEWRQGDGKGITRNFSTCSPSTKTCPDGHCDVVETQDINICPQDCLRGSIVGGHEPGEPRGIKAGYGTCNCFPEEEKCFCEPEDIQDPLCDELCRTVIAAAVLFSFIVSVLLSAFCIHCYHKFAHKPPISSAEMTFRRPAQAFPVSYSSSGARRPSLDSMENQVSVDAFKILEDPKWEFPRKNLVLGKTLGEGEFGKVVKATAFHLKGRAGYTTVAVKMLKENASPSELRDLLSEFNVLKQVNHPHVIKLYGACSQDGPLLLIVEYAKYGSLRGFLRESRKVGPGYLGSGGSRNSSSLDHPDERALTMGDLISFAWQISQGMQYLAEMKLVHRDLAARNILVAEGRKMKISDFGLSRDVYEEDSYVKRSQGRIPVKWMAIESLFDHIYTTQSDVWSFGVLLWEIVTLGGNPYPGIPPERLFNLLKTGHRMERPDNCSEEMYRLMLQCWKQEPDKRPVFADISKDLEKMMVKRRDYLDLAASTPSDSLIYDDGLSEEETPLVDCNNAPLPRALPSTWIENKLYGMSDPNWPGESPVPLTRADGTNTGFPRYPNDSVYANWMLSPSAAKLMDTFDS
# Experiment: Inhibition of human RET assessed as residual activity at 1 uM relative to control
row,SMILES,Activity [%]
1,COc1ccc(-c2nc3cc(-c4csc(C(=O)NCCC(C)C)c4)cnc3[nH]2)cc1,7
2,COc1ccc(-c2nc3cc(-c4csc(C(=O)NCC(C)(C)C)c4)cnc3[nH]2)cc1,10
3,COc1ccc(-c2nc3cc(-c4csc(C(=O)NCC(C)C)c4)cnc3[nH]2)cc1,6

# Biological target: Protein kinase C alpha type (Homo sapiens) (UniProt P17252)
# Experiment: Inhibition of human PKCalpha assessed as residual activity at 1 uM relative to control
row,SMILES,Activity [%]
1,COc1ccc(-c2nc3cc(-c4csc(C(=O)NCCC(C)C)c4)cnc3[nH]2)cc1,89
2,COc1ccc(-c2nc3cc(-c4csc(C(=O)NCC(C)(C)C)c4)cnc3[nH]2)cc1,91
3,COc1ccc(-c2nc3cc(-c4csc(C(=O)NCC(C)C)c4)cnc3[nH]2)cc1,101

# Source: ChEMBL document CHEMBL3124838, “Discovery of 6-aryl-azabenzimidazoles that inhibit the TBK1/IKK-ε kinases” (Bioorg Med Chem Lett, 2014)
